Source: patent US20190297888A1, “FUNGICIDAL COMPOUNDS AND MIXTURES FOR FUNGAL CONTROL IN CEREALS” (Dow AgroSciences LLC, priority 2016, published 2019)

What was measured:
Format in all cases: in vivo
[1] = system: Puccinia triticina (PUCCRT); experiment: Field assessment of Compound I and fluxapyroxad on brown rust of wheat (AUDPC % control); conditions: AUDPC-based, 5 field trials
From the text: (§1) Treatments consisting of the compound of Formula I and fungicide compound fluxapyroxad against fungal diseases of wheat were applied either using individually or as a two-way mixture of fluxapyroxad with the compound of Formula I. The compound of Formula I was applied with Agnique BP-420 (50% w/w at 0.3% v/v) at 50, 75 and 100 g ai/ha and Imtrex (Fluxapyroxad 62.5 g/L) was applied at 50, 75 and 100 g ai/ha. Commercial standards used in the studies were Adexar (epoxiconazole+fluxapyroxad—125 g/L), applied at 1.2 and 1.6 L pr/ha, and Elatus Era (benzovindiflupyr+prothioconazole—225 g/L), applied at 1.0 L pr/ha.
Fungicidal treatments containing the compound of Formula I and fluxapyroxad, either individually or as a two-way mixture, were assessed against brown rust of wheat (PUCCRT) in five separate field trials. In all trials, fungicidal treatments were applied at B34-51 growth stages of winter wheat (TRZAW; ATOUDUR, MIRADOUX, IRIDIUM or MV Vanek variety) under natural infection of brown rust (protectant tests, approximately 0-8% infection on leaf 3 or 4 at application). All treatments were part of an experimental trial designed as a randomized complete block with four replications and plot sizes of approximately 2×2 m to 2×7.5 m. Fungicidal treatments were applied at a water volume of 200 L/ha, using a backpack plot sprayer (BKPKAIR or BKPCENG) with a FLATFAN or AIRASST Nozzle pressurized at 210-250 kPa.
(§2) Disease severity (percentage of visual diseased foliage on whole plot or leaves) in five field trials was recorded following EPPO PP1/26 guideline prescriptions. Area under the disease progress curve (AUDPC) was calculated for each plot in […] trials using the sets of recorded severity data. Relative AUDPC (% control based on AUDPC) was calculated as percent of the nontreated control. Final results for the control of brown rust of wheat by the compound of Formula I, fluxapyroxad and mixtures are reported as an average of the relative AUDPC calculated over all five field trials. Statistical analysis was done according to ANOVA and Tukey's test (p=0.10).

[2] = system: Puccinia striiformis (PUCCST); experiment: Field assessment of Compound I and fluxapyroxad on yellow rust of wheat (AUDPC % control); conditions: AUDPC-based, 2 field trials
From the text: as §1
Fungicidal treatments containing the compound of Formula I and fluxapyroxad, either individually or as a two-way mixture, were assessed against yellow rust of wheat (PUCCST) in two separate field trials. In the first trial, fungicidal treatments were applied once at B37 (early curative, 6.5% infection at application on L3) growth stage of winter wheat (TRZAW, Fairplay variety). The treatments were part of an experimental trial designed as a randomized complete block with four replications and a plot of approximately 2×6 m. Treatments were applied at water volume of 200 L/ha, using a backpack plot sprayer (BKPCKAIR, FLATFANA nozzle) and pressurized at 300 kPa.
In the second trial, fungicidal treatments containing the compound of Formula I and fluxapyroxad, either individually or as a two-way mixture, were applied once at B33-37 (early curative, 0.5% infection on L2 at application) growth stages of wheat (TRZAW, SOLSTICE variety). The treatment was part of an experimental trial designed as a randomized complete block with four replications and a plot of approximately 1.5×14 m. Treatments were applied at water volume of 200 L/ha, using a backpack precision plot sprayer (BKCKAIR, FLAT FAN nozzle) and pressurized at 210 kPa.
as §2, with “both” for “five”, “yellow” for “brown”, “both” for “all five”

Puccinia hordei (PUCCHD) = experiment: Field assessment of Compound I and fluxapyroxad on rust of barley (AUDPC % control); conditions: AUDPC-based, 2 field trials
Experimental: (§3) Commercial standards used in the studies were Proline 275 (275 g ai/L Prothioconazole), applied at 150 g ai/ha, and SiltraXpro (200 g ai/L prothioconazole+60 g ai/[…] bixafen), applied at 195 g ai/ha.
(§4) Fungicidal treatments containing the compound of Formula I and fluxapyroxad, either individually or as a two-way mixture, were assessed against rust of barley (PUCCHD) in two separate field trials. In both trials, fungicidal treatments were applied at B37-39 growth stages of winter barley (Lomeritt variety) under natural infection of barley rust. All treatments were part of an experimental trial designed as a randomized complete block with four replications.
Disease severity (percentage of visual diseased foliage on whole plot or leaves) in […] field trials was recorded following EPPO PP1/26 guideline prescriptions. Area under the disease progress curve (AUDPC) was calculated for each plot in both trials using the sets of recorded severity data. Relative AUDPC (% control based on AUDPC) was calculated as percent of the nontreated control. […] Statistical analysis was done according to ANOVA and Tukey's test (p=0.10).

[3] = system: Pyrenophora teres (PYRNTE); experiment: Field assessment of Compound I and fluxapyroxad on net blotch of barley (AUDPC % control); conditions: AUDPC-based, 2 field trials
Experimental: as §3
as §4, with “net blotch” for “rust”, “(PYRNTE)” for “(PUCCHD)”, “B31-37” for “B37-39”, “and sprong barley (HORVW, Lomeritt variety; HORVS, Scarlett” for “(Lomeritt”, “net blotch (protectant tests, 1% infection on leaf 4 and 10% infection on leaf 6 at application).” for “barley rust.”
Disease severity (percentage of visual diseased foliage on whole plot or leaves) in both field trials was recorded following EPPO PP1/26 guideline prescriptions. Area under the disease progress curve (AUDPC) was calculated for each plot in both trials using the sets of recorded severity data. Relative AUDPC (% control based on AUDPC) was calculated as percent of the nontreated control. […] Statistical analysis was done according to ANOVA and Tukey's test (p=0.10).

Compound | PUCCRT % Control ([1]; rate 50 g ai/ha) [%] | PUCCRT % Control ([1]; rate 75 g ai/ha) [%] | PUCCRT % Control ([1]; rate 100 g ai/ha) [%] | PUCCST % Control ([2]; rate 50 g ai/ha) [%] | PUCCST % Control ([2]; rate 75 g ai/ha) [%] | PUCCST % Control ([2]; rate 100 g ai/ha) [%] | PUCCHD % Control (Puccinia hordei (PUCCHD); rate 75 g ai/ha) [%] | PUCCHD % Control (Puccinia hordei (PUCCHD); rate 100 g ai/ha) [%] | PUCCHD % Control (Puccinia hordei (PUCCHD); rate 150 g ai/ha) [%] | PYRNTE % Control ([3]; rate 75 g ai/ha) [%] | PYRNTE % Control ([3]; rate 100 g ai/ha) [%] | PYRNTE % Control ([3]; rate 150 g ai/ha) [%] | PUCCHD % Control (Puccinia hordei (PUCCHD); rate 45 g ai/ha) [%] | PUCCHD % Control (Puccinia hordei (PUCCHD); rate 62.5 g ai/ha) [%] | PYRNTE % Control ([3]; rate 45 g ai/ha) [%] | PYRNTE % Control ([3]; rate 62.5 g ai/ha) [%]
N#Cc1ccc(Oc2ccc(C(F)(F)C(O)(Cn3ncnc3S)c3ccc(F)cc3F)nc2)cc1 (stereo not drawn) [Compound I, 4-((6-(2-(2,4-difluorophenyl)-1,1-difluoro-2-hydroxy-3-(5-mercapto-1H-1,2,4-triazol-1-yl)propyl)pyridin-3-yl)oxy)benzonitrile] | 86.0 | 90.0 | 93.4 | 80.0 | 93.3 | 98.0 | 71.0 | 75.3 | 88.8 | 8.66 | 23.5 | 40.8 |  |  |  | 
Cn1cc(C(=O)Nc2ccccc2-c2cc(F)c(F)c(F)c2)c(C(F)F)n1 [Fluxapyroxad, 3-(difluoromethyl)-1-methyl-N-(3′,4′,5′-trifluorobiphenyl-2-yl)pyrazole-4-carboxamide] | 84.0 | 94.0 | 95.3 | 74.1 | 69.0 | 79.4 |  | 68.7 |  |  | 83.2 |  | 49.0 | 54.5 | 66.5 | 73.4
